The nature of one data set: physchem. The conditions noted are these: for solubility: organic solvent or mixture. From the text: In one or more embodiments, the foamable composition includes a potent solvent, in addition to or in place of one of the hydrophobic solvents, polar solvents or emollients of the composition. A potent solvent is a solvent other than mineral oil that solubilizes a specific active agent substantially better than a hydrocarbon solvent such as mineral oil or petrolatum.
In one or more embodiments, the composition includes at least one active agent in a therapeutically effective concentration; and at least one potent solvent in a sufficient amount to substantially solubilize the at least one active agent in the composition. […] In one or more embodiments, the concentration of the at least one potent solvent is more than about 40% of the at least one solvent of the composition; or even more than about 60%.

The conditions of data set [1]: cited from earlier work.

Each structure is given as a SMILES string. Converted amounts (≈) assume the structure as drawn. Where two headings read alike, the source gives them in different places.

Consider `CCCCC(=O)O[C@]1(C(=O)CO)[C@@H](C)C[C@H]2[C@@H]3CCC4=CC(=O)C=C[C@]4(C)[C@@]3(F)[C@@H](O)C[C@@]21C` [Betamethasone valerate], for which, in “physchem”, the Solubility in glycofurol entry was “more than 1%” and the “Solubility in mineral oil” value is less than 0.01%. The solubility in water result in data set [1] (in words) is on record as “practically insoluble”.

Consider `CCCC(=O)O[C@]1(C(=O)CO)CC[C@H]2[C@@H]3CCC4=CC(=O)CC[C@]4(C)[C@H]3[C@@H](O)C[C@@]21C` [Hydrocortisone butyrate], for which, in “physchem”, the Solubility in glycofurol result is listed as “more than 1%” and the “Solubility in mineral oil” value is less than 0.01%.

For `CC(=O)N1CCN(c2ccc(OCC3COC(Cn4ccnc4)(c4ccc(Cl)cc4Cl)O3)cc2)CC1` (stereo not drawn) [Ketoconazole], in the data set “physchem”, the “Solubility in dimethyl isosorbide” value is “more than 1%”, the Solubility in glycofurol entry is reported as “more than 1%”, the “Solubility in mineral oil” value is on record as less than 0.01% and the “Solubility in propylene glycol” value is “more than 1%”.

`Cc1cnc(NC(=O)C2=C(O)c3ccccc3S(=O)(=O)N2C)s1` [Meloxicam]: the “Solubility in mineral oil” value in the data set “physchem” is reported as less than 0.001%. In addition, the solubility in the data set “physchem” (Solubility in PEG 400) came to 3700 µg/mL (≈ 10.5 mM); in “physchem” (Solubility in propylene glycol) it was 300 µg/mL (≈ 0.854 mM).

Take `Cc1ncc([N+](=O)[O-])n1CCO` [Metronidazole]: in “physchem”, the “Solubility in dimethyl isosorbide” value is given as “more than 1%” and the “Solubility in mineral oil” value was less than 0.01%.

Consider `C/C(=C\C(=O)OCCCCCCCCC(=O)O)C[C@@H]1OC[C@H](C[C@@H]2O[C@H]2[C@@H](C)[C@H](C)O)[C@@H](O)[C@H]1O` [Mupirocin], for which, in the data set “physchem”, the “Solubility in dimethyl isosorbide” value is given as “more than 1%”, the Solubility in glycofurol result is “more than 1%”, the “Solubility in mineral oil” value is less than 0.01% and the “Solubility in polyethylene glycol 400 (PEG 400)” value is “more than 1%”. The “Solubility in propylene glycol” value in the data set “physchem” was “more than 1%”.

With `CC(=O)[C@H]1CC[C@H]2[C@@H]3CCC4=CC(=O)CC[C@]4(C)[C@H]3CC[C@]12C` [Progesterone], in the data set “physchem”, the “Solubility in mineral oil” value is reported as less than 0.001%. Also, the solubility in the data set “physchem” (Solubility in PEG 400) worked out at 15300 µg/mL (≈ 48.7 mM).

As to `C=C1/C(=C\C=C2/CCC[C@]3(C)[C@@H]([C@H](C)/C=C/[C@@H](O)C4CC4)CC[C@@H]23)C[C@@H](O)C[C@@H]1O` [calcipotriol], the solubility in water in data set [1] is 0.6 µg/mL (≈ 0.00145 mM).

In the case of `CCC(=O)O[C@]1(C(=O)CCl)[C@@H](C)C[C@H]2[C@@H]3CCC4=CC(=O)C=C[C@]4(C)[C@@]3(F)[C@@H](O)C[C@@]21C` [clobestol proprionate], in data set [1] (in words), the “degree of solubility in water or petrolatum or the composition” value is given as “practically insoluble”.

In the case of `C=CC[C@@H]1/C=C(\C)C[C@H](C)C[C@H](OC)[C@H]2O[C@@](O)(C(=O)C(=O)N3CCCC[C@H]3C(=O)O[C@H](/C(C)=C/[C@@H]3CC[C@@H](O)[C@H](OC)C3)[C@H](C)[C@@H](O)CC1=O)[C@H](C)C[C@@H]2OC` [tacrolimus], the solubility in water entry in data set [1] (in words) is “insoluble”.

By solubility is commonly meant the dissolved amount per volume that the medium holds.

The record behind these values is US8795635B2, “Substantially non-aqueous foamable petrolatum based pharmaceutical and cosmetic compositions and their uses” (Foamix Ltd., priority 2006, dated 2014).
